Key:
Experiment in all cases: relative viability (nuclei count vs DMSO), 5 days (fraction); higher = more cells survive
Carboplatin + Bortezomib = compound: C1CC(C1)(C(=O)O)C(=O)O.[NH2-].[NH2-].[Pt+2] [Carboplatin] + CC(C)C[C@H](NC(=O)[C@H](Cc1ccccc1)NC(=O)c1cnccn1)B(O)O [Bortezomib] (partner 0.002 µM)
Procedure, shortened: (§1)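 Lung cancer cell lines in 1536-well plates were dosed by pin tool the day after seeding, either with one drug alone or with a fixed anchor-drug dose plus five library-drug doses (not always all listed) in √10 steps. After 5 days, cells were fixed and their nuclei stained in one step (final 0.05% Triton X-100, 1% formaldehyde, 1 ug/ml Hoechst), then counted on 4× images. Relative viability is the nuclei count in treated wells divided by that in vehicle wells. Values are medians of duplicate plates.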

Carboplatin + Foretinib = compound: C1CC(C1)(C(=O)O)C(=O)O.[NH2-].[NH2-].[Pt+2] [Carboplatin] + COc1cc2c(Oc3ccc(NC(=O)C4(C(=O)Nc5ccc(F)cc5)CC4)cc3F)ccnc2cc1OCCCN1CCOCC1 [Foretinib] (partner 0.25 µM)
Procedure, shortened: as §1

GSK126 + Tozasertib = compound: CC[C@H](C)N1C=C(C2=C(C=C(C=C21)C3=CN=C(C=C3)N4CCNCC4)C(=O)NCC5=C(C=C(NC5=O)C)C)C [GSK126] + Cc1cc(Nc2cc(N3CCN(C)CC3)nc(Sc3ccc(NC(=O)C4CC4)cc3)n2)n[nH]1 [Tozasertib] (partner 0.1 µM)
Procedure, shortened: as §1

MLN4924 + Vorinostat = compound: NS(=O)(=O)OC[C@@H]1C[C@@H](n2ccc3c(N[C@H]4CCc5ccccc54)ncnc32)C[C@@H]1O [MLN4924] + O=C(CCCCCCC(=O)Nc1ccccc1)NO [Vorinostat] (partner 1 µM)
Procedure, shortened: as §1

Row | Cell Line | relative viability (Carboplatin + Bortezomib; first compound 0.08 µM) | relative viability (Carboplatin + Bortezomib; first compound 0.253 µM) | relative viability (Carboplatin + Bortezomib; first compound 0.8 µM) | relative viability (Carboplatin + Bortezomib; first compound 2.53 µM) | relative viability (Carboplatin + Bortezomib; first compound 8 µM) | relative viability (Carboplatin + Foretinib; first compound 0.08 µM) | relative viability (Carboplatin + Foretinib; first compound 0.253 µM) | relative viability (Carboplatin + Foretinib; first compound 0.8 µM) | relative viability (Carboplatin + Foretinib; first compound 2.53 µM) | relative viability (Carboplatin + Foretinib; first compound 8 µM) | relative viability (GSK126 + Tozasertib; first compound 0.08 µM) | relative viability (GSK126 + Tozasertib; first compound 0.253 µM) | relative viability (GSK126 + Tozasertib; first compound 0.8 µM) | relative viability (GSK126 + Tozasertib; first compound 2.53 µM) | relative viability (GSK126 + Tozasertib; first compound 8 µM) | relative viability (MLN4924 + Vorinostat; first compound 0.04 µM) | relative viability (MLN4924 + Vorinostat; first compound 0.1265 µM) | relative viability (MLN4924 + Vorinostat; first compound 0.4 µM) | relative viability (MLN4924 + Vorinostat; first compound 1.265 µM) | relative viability (MLN4924 + Vorinostat; first compound 4 µM)
1 | LCLC-97TM1 | 0.723 | 0.62 | 1.25 | 0.844 | 0.375 | 1 | 0.956 | 0.892 | 0.868 | 0.765 | 0.244 | 0.223 | 0.188 | 0.225 | 0.176 | 0.742 | 0.503 | 0.0752 | 0.0454 | 0.0589
2 | LCLC-103H | 1.13 | 1.33 | 1.06 | 1.24 | 1 | 0.752 | 0.83 | 0.806 | 0.703 | 0.632 | 0.699 | 0.473 | 0.435 | 0.512 | 0.446 | 0.763 | 0.771 | 0.372 | 0.252 | 0.282
3 | LOU-NH91 | 0.581 | 0.52 | 0.54 | 0.472 | 0.495 | 0.991 | 0.998 | 0.955 | 0.921 | 0.922 | 0.741 | 0.66 | 0.661 | 0.685 | 0.631 | 0.581 | 0.938 | 0.661 | 0.475 | 0.506
4 | LU99A | 1.01 | 1.23 | 1.04 | 0.968 | 0.757 | 0.794 | 0.749 | 0.752 | 0.713 | 0.522 | 0.259 | 0.268 | 0.26 | 0.198 | 0.21 | 0.514 | 0.381 | 0.3 | 0.119 | 0.106
5 | LXF-289 | 1.03 | 0.986 | 0.98 | 1.01 | 0.919 | 1.02 | 0.996 | 0.992 | 0.918 | 0.992 | 0.162 | 0.149 | 0.218 | 0.176 | 0.181 | 0.654 | 0.506 | 0.462 | 0.143 | 0.115
6 | NCI-H23 | 1.1 | 1.11 | 1.08 | 0.861 | 0.784 | 1.02 | 1.01 | 0.886 | 0.846 | 0.826 | 0.374 | 0.374 | 0.354 | 0.624 | 0.266 | 0.521 | 0.441 | 0.197 | 0.134 | 0.142
7 | NCI-H322M | 1.26 | 1.23 | 1.2 | 1.22 | 1.14 | 1.12 | 0.943 | 0.895 | 0.861 | 0.77 | 0.501 | 0.51 | 0.49 | 0.472 | 0.499 | 1.27 | 1.47 | 0.863 | 0.38 | 0.475
8 | NCI-H441 | 0.239 | 0.777 | 0.618 | 0.459 | 0.364 | 0.929 | 0.971 | 0.744 | 1.01 | 0.915 | 0.68 | 0.571 | 0.567 | 0.545 | 0.461 | 0.859 | 0.733 | 0.576 | 0.158 | 0.152

— the supplement of paper PMC10307832
